Read-outs that look alike come from different tables or passages of the source.

Broadly, the IC50 is the concentration needed to halve the response being measured.

The test concerns the target T1, IKKε (Homo sapiens, UniProt Q14164).
T1 construct: His-tag (in-house Sf9 preparation) or GST-tag (purchased Invitrogen preparation); these are alternatives, not both on one protein; host or cells: Sf9 cells
T1 sequence (Q14164 1-716): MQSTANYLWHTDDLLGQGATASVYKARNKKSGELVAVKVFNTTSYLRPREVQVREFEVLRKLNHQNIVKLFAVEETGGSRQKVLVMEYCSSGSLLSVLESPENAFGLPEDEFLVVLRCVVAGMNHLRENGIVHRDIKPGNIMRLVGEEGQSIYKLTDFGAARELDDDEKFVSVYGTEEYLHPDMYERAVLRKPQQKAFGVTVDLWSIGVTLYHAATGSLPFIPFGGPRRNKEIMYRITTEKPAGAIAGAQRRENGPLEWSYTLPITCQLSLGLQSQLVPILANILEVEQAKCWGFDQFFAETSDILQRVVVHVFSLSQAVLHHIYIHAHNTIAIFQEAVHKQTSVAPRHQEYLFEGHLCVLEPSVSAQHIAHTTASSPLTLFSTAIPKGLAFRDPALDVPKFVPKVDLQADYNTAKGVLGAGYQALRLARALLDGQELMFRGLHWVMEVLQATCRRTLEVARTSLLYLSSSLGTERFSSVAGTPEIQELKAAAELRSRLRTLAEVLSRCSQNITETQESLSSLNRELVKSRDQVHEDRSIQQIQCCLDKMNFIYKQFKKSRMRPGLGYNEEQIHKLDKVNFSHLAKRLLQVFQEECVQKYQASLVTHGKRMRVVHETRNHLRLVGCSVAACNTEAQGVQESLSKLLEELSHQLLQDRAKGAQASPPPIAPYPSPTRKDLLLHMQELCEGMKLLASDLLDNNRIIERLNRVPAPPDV
Description: In-vitro IKKε kinase assay (radiolabelled ATP, filterplate). The format is biochemical. The procedure:
IKKε enzyme was produced as a His-tag fusion in Sf9 cells or purchased as a GST-tag fusion (Invitrogen, Carlsbad, Calif.). TBK1 enzyme was produced as a His-tag fusion in Sf9 cells. Kinase reactions were carried out in reaction buffer using myelin basic protein (Millipore, Ballerica, Mass.), casein or dephosphorylated casein (Sigma, St. Louis, Mo.) as substrate at an ATP concentration equal to twice the Km,ATP value for each enzyme, corresponding to 32 μM ATP for IKKε and 60 μM ATP for TBK1. Radiolabelled [γ^33]ATP (PerkinElmer, Waltham, Mass.) in the amount of […] (IKKe, “normal”) or 0.7 μCi (IKKε, “sensitized”) or 1.25 μCi (TBK1) was added to each assay. Final enzyme concentrations were 0.1 or 0.015 μg/ml (IKKε) and 0.1 or 0.02 μg/ml (TBK1) for the “normal” and “sensitized” assay, respectively, and “sensitized” assays were conducted using only dephosphorylated casein as substrate. Test compounds (or DMSO solvent as a control) were added prior to initiation of the reactions. Reactions were terminated after 30-45 minutes by adding 3% phosphoric acid. Terminated reactions were transferred to P-81 cellulose phosphate filterplates (Whatman, Inc., Piscataway, N.J.) and washed with 1% phosphoric acid on a vacuum apparatus. After air drying, scintillant (PerkinElmer, Waltham, Mass.) was added and the plates were read on a PerkinElmer TopCount NXT instrument. Counts were normalized to DMSO controls after background subtraction.

Where [1] appears, read: "sensitized" assay, read-out: IC50, inhibition of the kinase activity of IKKε.
Where [2] appears, read: in-vitro IKKε kinase inhibition assays, given as 0.005 μM (5 nM), read-out: IKKε kinase inhibitory activity (IC50 value).

Take `N#Cc1cc(-c2ccnc(Nc3ccc(C(=O)N4CCN(CCO)CC4)s3)n2)ccc1OC1CCOCC1` [Example Compound 95, 5-{2-[(5-{[4-(2-Hydroxyethyl)piperazin-1-yl]carbonyl}thiophen-2-yl)amino]pyrimidin-4-yl}-2-(tetrahydro-2H-pyran-4-yloxy)benzonitrile]: the IC50 is, setting by setting: under setting [1], under 5 nM; under setting [2], under 5 nM.
For `COC1CN(C(=O)c2csc(Nc3nccc(-c4ccc(OC5CCOCC5)c(C#N)c4)n3)n2)C1` [Example Compound 104, 5-[2-({4-[(3-Methoxyazetidin-1-yl)carbonyl]-1,3-thiazol-2-yl}amino)pyrimidin-4-yl]-2-(tetrahydro-2H-pyran-4-yloxy)benzonitrile], the IC50 is, setting by setting: under setting [1], under 5 nM; under setting [2], under 5 nM.
On to `COc1cc(Nc2nccc(-c3ccc(O[C@@H]4CCN(C(=O)CO)C4)c(C#N)c3)n2)ccn1` [Example Compound 121, 2-{[(3R)-1-(Hydroxyacetyl)pyrrolidin-3-yl]oxy}-5-{2-[(2-methoxypyridin-4-yl)amino]pyrimidin-4-yl}benzonitrile], for which the IC50 under setting [2] is under 5 nM.
Regarding `C[C@H](O)C(=O)N1CCC(Oc2ccc(-c3ccnc(Nc4ccc(N5CCOCC5)nc4)n3)cc2C#N)CC1` [Example Compound 127, 2-({1-[(2S)-2-Hydroxypropanoyl]piperidin-4-yl}oxy)-5-(2-{[6-(morpholin-4-yl)pyridin-3-yl]amino}pyrimidin-4-yl)benzonitrile], the IC50 under setting [1] was under 5 nM and the IC50 under setting [2] is under 5 nM.
As to `COC1CN(c2cc(Nc3nccc(-c4ccc(NC(=O)C5CC5)c(C#N)c4)n3)ccn2)C1` [Example Compound 142, N-[2-Cyano-4-(2-{[2-(3-methoxyazetidin-1-yl)pyridin-4-yl]amino}pyrimidin-4-yl)phenyl]cyclopropanecarboxamide], the IC50 is under 5 nM under setting [1] and under 5 nM under setting [2].
For the compound `Cc1ccc(Nc2nccc(-c3ccc(NC(=O)C4CC4)c(C#N)c3)n2)cn1` [Example Compound 149, N-(2-Cyano-4-{2-[(6-methylpyridin-3-yl)amino]pyrimidin-4-yl}phenyl)cyclopropanecarboxamide], the concentration for half-maximal inhibition (IC50) by setting is: under setting [1], under 5 nM; under setting [2], under 5 nM.
On to `COCCNc1ncc(-c2ccc(Nc3nccc(-c4ccc(OC5CCOCC5)c(C#N)c4)n3)cn2)cn1` [Example Compound 187, 5-{2-[(6-{2-[(2-Methoxyethyl)amino]pyrimidin-5-yl}pyridin-3-yl)amino]pyrimidin-4-yl}-2-(tetrahydro-2H-pyran-4-yloxy)benzonitrile], for which the IC50 under setting [1] was under 5 nM.
`N#Cc1cc(-c2ccnc(Nc3ccc(-c4cn[nH]c4)nc3)n2)ccc1OC1CCOCC1` [Example Compound 188, 5-(2-{[6-(1H-Pyrazol-4-yl)pyridin-3-yl]amino}pyrimidin-4-yl)-2-(tetrahydro-2H-pyran-4-yloxy)benzonitrile]: under setting [1], the IC50 is under 5 nM.
As to `Cn1cc(-c2ccc(Nc3nccc(-c4ccc(OC5CCOCC5)c(C#N)c4)n3)cn2)cn1` [Example Compound 189, 5-(2-{[6-(1-Methyl-1H-pyrazol-4-yl)pyridin-3-yl]amino}pyrimidin-4-yl)-2-(tetrahydro-2H-pyran-4-yloxy)benzonitrile], the IC50 under setting [1] is under 5 nM.
The same measure, in the same setting: as for `N#Cc1cc(-c2ccnc(Nc3ccc(/C=C/CN4CCOCC4)nc3)n2)ccc1OC1CCOCC1` [Example Compound 190, 5-[2-({6-[(1E)-3-(Morpholin-4-yl)prop-1-en-1-yl]pyridin-3-yl}amino)pyrimidin-4-yl]-2-(tetrahydro-2H-pyran-4-yloxy)benzonitrile], the figure is under 5 nM; as for `N#Cc1cc(-c2ccnc(Nc3ccnc(N4CCC[C@@H]4CO)c3)n2)ccc1OC1CCOCC1` [Example Compound 194, 5-[2-({2-[(2R)-2-(Hydroxymethyl)pyrrolidin-1-yl]pyridin-4-yl}amino)pyrimidin-4-yl]-2-(tetrahydro-2H-pyran-4-yloxy)benzonitrile], under 5 nM; as for `CN(Cc1ccc(Nc2nccc(-c3ccc(OC4CCOCC4)c(C#N)c3)n2)cn1)C(=O)CO` [Example Compound 195, N-{[5-({4-[3-Cyano-4-(tetrahydro-2H-pyran-4-yloxy)phenyl]pyrimidin-2-yl}amino)pyridin-2-yl]methyl}-2-hydroxy-N-methylacetamide], under 5 nM.
On to `CN(Cc1ccc(Nc2nccc(-c3ccc(OC4CCOCC4)c(C#N)c3)n2)cn1)C(=O)C1(N)CC1` [Example Compound 196, 1-Amino-N-{[5-({4-[3-cyano-4-(tetrahydro-2H-pyran-4-yloxy)phenyl]pyrimidin-2-yl}amino)pyridin-2-yl]methyl}-N-methylcyclopropanecarboxamide], for which, under setting [1], the half-maximal inhibitory concentration (IC50) was under 5 nM.
Turning to `CN(Cc1ccc(Nc2nccc(-c3ccc(OC4CCOCC4)c(C#N)c3)n2)cn1)C(=O)C1(O)CC1` [Example Compound 197, N-{[5-({4-[3-Cyano-4-(tetrahydro-2H-pyran-4-yloxy)phenyl]pyrimidin-2-yl}amino)pyridin-2-yl]methyl}-1-hydroxy-N-methylcyclopropanecarboxamide], the half-maximal inhibitory concentration (IC50) under setting [1] was under 5 nM.
On the same count and under the same terms, the result for `C[C@@H](O)C(=O)N(C)Cc1ccc(Nc2nccc(-c3ccc(OC4CCOCC4)c(C#N)c3)n2)cn1` [Example Compound 198, (2R)-N-{[5-({4-[3-Cyano-4-(tetrahydro-2H-pyran-4-yloxy)phenyl]pyrimidin-2-yl}amino)pyridin-2-yl]methyl}-2-hydroxy-N-methylpropanamide] reads under 5 nM; that for `N#Cc1cc(-c2ccnc(Nc3ccc(-n4ccnc4)nc3)n2)ccc1OC1CCOCC1` [Example Compound 200, 5-(2-{[6-(1H-Imidazol-1-yl)pyridin-3-yl]amino}pyrimidin-4-yl)-2-(tetrahydro-2H-pyran-4-yloxy)benzonitrile], under 5 nM; that for `Cn1cc(-c2cc(Nc3nccc(-c4ccc(O[C@@H]5CCN(C(=O)CO)C5)c(C#N)c4)n3)ccn2)cn1` [Example Compound 204, 2-{[(3R)-1-(Hydroxyacetyl)pyrrolidin-3-yl]oxy}-5-(2-{[2-(1-methyl-1H-pyrazol-4-yl)pyridin-4-yl]amino}pyrimidin-4-yl)benzonitrile], under 5 nM.
With `CC(=O)N(C)Cc1ccc(Nc2nccc(-c3ccc(OC4CCOCC4)c(C#N)c3)n2)cn1` [Example Compound 208, N-{[5-({4-[3-Cyano-4-(tetrahydro-2H-pyran-4-yloxy)phenyl]pyrimidin-2-yl}amino)pyridin-2-yl]methyl}-N-methylacetamide], under setting [1], the IC50 was under 5 nM.
Consider `CC(c1ccc(Nc2nccc(-c3ccc(OC4CCOCC4)c(C#N)c3)n2)cn1)N1CC(O)C1` (stereo not drawn) [Example Compound 214, 5-[2-({6-[1-(3-Hydroxyazetidin-1-yl)ethyl]pyridin-3-yl}amino)pyrimidin-4-yl]-2-(tetrahydro-2H-pyran-4-yloxy)benzonitrile], for which the half-maximal inhibitory concentration (IC50) under setting [1] was under 5 nM.
On the same count and under the same terms, as for `N#Cc1cc(-c2ccnc(Nc3ccnc(CN4CC(O)C4)c3)n2)ccc1OC1CCOCC1` [Example Compound 218, 5-[2-({2-[(3-Hydroxyazetidin-1-yl)methyl]pyridin-4-yl}amino)pyrimidin-4-yl]-2-(tetrahydro-2H-pyran-4-yloxy)benzonitrile], the figure is under 5 nM; as for `N#Cc1cc(-c2ccnc(Nc3ccnc(CN4CCC(F)(F)C4)c3)n2)ccc1OC1CCOCC1` [Example Compound 220, 5-[2-({2-[(3,3-Difluoropyrrolidin-1-yl)methyl]pyridin-4-yl}amino)pyrimidin-4-yl]-2-(tetrahydro-2H-pyran-4-yloxy)benzonitrile], under 5 nM; as for `Cc1ccc(Nc2nccc(-c3ccc(OC4CCN(C(=O)CO)CC4)c(C#N)c3)n2)cn1` [Example Compound 221, 2-{[1-(Hydroxyacetyl)piperidin-4-yl]oxy}-5-{2-[(6-methylpyridin-3-yl)amino]pyrimidin-4-yl}benzonitrile], under 5 nM.

The values above are taken from patent US20140288044A1, “COMPOSITIONS AND THERAPEUTIC USES OF IKK-RELATED KINASE EPSILON AND TANKBINDING KINASE 1 INHIBITORS” (Alzheimer's Institute of America, Inc., priority 2011, published 2014).
